The test system of assay [1] is Vigna mungo. The experiment in a line: Root formation-promoting activity in Vigna mungo (black gram) cuttings at 1 x 10^-4 M relative to IBA (reference value: 35 +/- 8%). It counts as functional.
For assay [2], the system named is Vigna mungo. The experiment in a line: Induction of callus formation on Vigna mungo (black gram) seedlings at 3 x 10^-5 M after 3 days. It counts as functional, organism-based.
Assay [3] relates to Vigna mungo. The experiment in a line: Enhancement of lateral root formation in intact Vigna mungo (black gram) seedlings at 1 x 10^-6 M. It counts as functional, organism-based.
The test system of assay [4] is Vigna mungo. The experiment in a line: Enhancement of hypocotyl swelling in intact Vigna mungo (black gram) seedlings at 1 x 10^-6 M. It counts as functional, organism-based.
Assay [5] has as its system Brassica rapa subsp. pekinensis. The experiment in a line: Relative growth inhibitory activity of Brassica rapa subsp. pekinensis (Chinese cabbage) hypocotyl at 1 x 10^-7 to 1 x 10^-4 M.
The test system of assay [6] is Vigna mungo. The experiment in a line: Enhancement of lateral root formation in intact Vigna mungo (black gram) seedlings at 1 x 10^-4 M. It counts as functional, organism-based.
In assay [7] the test system is Vigna mungo. The experiment in a line: Enhancement of hypocotyl swelling in intact Vigna mungo (black gram) seedlings at 1 x 10^-4 M. Type of assay: functional, organism-based.
The subject of assay [8] is Vigna mungo. The experiment in a line: Enhancement of lateral root formation in intact Vigna mungo (black gram) seedlings at 3 x 10^-6 M. It counts as functional, organism-based.
Assay [9] deals with Vigna mungo. The experiment in a line: Enhancement of hypocotyl swelling in intact Vigna mungo (black gram) seedlings at 3 x 10^-6 M. It counts as functional, organism-based.
The test system of assay [10] is Vigna mungo. The experiment in a line: Ratio of compound activity to IBA activity for root formation-promoting activity in Vigna mungo (black gram) cuttings at 1 x 10^-4 M. Type of assay: functional.
The test system of assay [11] is Vigna mungo. The experiment in a line: Induction of callus formation on Vigna mungo (black gram) seedlings at > 3 x 10^-3 M after 3 days. Type of assay: functional, organism-based.
For assay [12], the system named is Vigna mungo. The experiment in a line: Enhancement of lateral root formation in intact Vigna mungo (black gram) seedlings at 3 x 10^-4 M. Type of assay: functional, organism-based.
Assay [13] deals with Brassica rapa subsp. pekinensis. The experiment in a line: Ratio of IAA activity to compound activity for growth inhibition of Brassica rapa subsp. pekinensis (Chinese cabbage) hypocotyl at 1 x 10^-7 to 1 x 10^-4 M. It counts as functional.
Assay [14] has as its system Vigna mungo. The experiment in a line: Enhancement of hypocotyl swelling in intact Vigna mungo (black gram) seedlings at 3 x 10^-4 M. It counts as functional, organism-based.
The test system of assay [15] is Brassica rapa subsp. pekinensis. The experiment in a line: Growth inhibition of Brassica rapa subsp. pekinensis (Chinese cabbage) hypocotyl at 1 x 10^-7 to 1 x 10^-4 M. Type of assay: functional.

Calls of active or inactive are those of the source. The calls are words filed in the database; no cut-off is given here.

For `O=C(O)Cc1c[nH]c2cccc(Cl)c12`, the Activity in [1] turned out to be 384%. In addition, the outcome in assay [2], in assay [3] and in [4] was Active. Moreover, the “relative activity (%)” value in assay [5] was 6%.

As to `O=C(O)Cc1c[nH]c2ccccc12` [INDOLE-3-ACETIC ACID], in [1], the Activity was determined as 36%. For the same compound, the outcome in assay [6] and in assay [7] was Active.

`Cc1cccc2[nH]cc(CC(=O)O)c12` registered an Activity in [1] of 70%. The result in [2], in assay [8] and in [9] was Active. Also, in assay [5], the “relative activity (%)” value came to 40%.

In the case of `O=C(O)Cc1c[nH]c2cccc(C(F)(F)F)c12`, the Activity in assay [1] is on record as 156%. Further, the results for the Ratio in [10] and in [13] were 1.5 and 6, respectively. In addition, the result in assay [11], in assay [12] and in assay [14] was Active. Besides, the “growth inhibition (GI)” value in assay [15] is “Active”.

On to `O=C(O)CCCc1c[nH]c2ccccc12`, for which the Activity in [1] is 100%.

Values taken from ChEMBL document CHEMBL3046868, “Synthesis and biological activities of 4-trifluoromethylindole-3-acetic acid: a new fluorinated indole auxin” (2008).
